Data set [1] has as its system Microsporum canis B68128. Put plainly: Antifungal activity in vitro (resazurin susceptibility screen), Inf. B. Format: cell-based. To be noted: Microsporum canis, B68128, Microsporum canis B68128; 27 °C, 9 days, resa time 24 hours; read-out: Inf. B pIC50 (converted). Summed up: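 Each well was inoculated with 10^3 cfu of fungus onto dried, pre-spotted compound serial dilutions in RPMI-MOPS medium, with fungal growth read by resazurin. Growth was referenced to drug-free culture (100%) and medium-only (0%) controls on each plate.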

The subject of data set [2] is Scedosporium prolificans IHEM21157. Put plainly: Antifungal activity in vitro (resazurin susceptibility screen), Inf. I. Format: cell-based. To be noted: Lomentospora prolificans, 37 °C, 48 hours, resa time 17 hours, read-out: Inf. I pIC50 (converted). In short, it runs like this: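 First, serial dilutions of test compound are spotted onto plates, which may be stored dark at 4 °C for up to 2 weeks. Next, each well gets 10^3 cfu of fungus from cryopreserved stock diluted 1/1000 in medium. Untreated culture and RPMI-MOPS alone serve as plate controls.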

Data set [3] relates to Mucor circinelloides IHEM21105. In words: Antifungal activity in vitro (resazurin susceptibility screen), Inf. L. The note with it: 27 °C, 48 hours, resa time 17 hours, read-out: Inf. L pIC50 (converted). Format: cell-based. On the procedure: The standard susceptibility screen was performed in 96-well plates (U-bottom, Greiner Bio-One). […] These serial dilutions (10 n1) were then spotted onto test-plates that could be stored in the dark at 4° C. for a maximum period of 2 weeks. […] The different fungal species/isolates (Table 3a) were cryopreserved and 1/1000 diluted in medium just prior to use. A standard inoculum of 200 μl containing 10^3 colony-forming unit (cfu) was then added to each well. A positive control (100% growth=fungal culture without antifungal) and a negative control (0% growth ═RPMI-MOPS medium) were included on each plate. […] [table]

A short description of data set [4]: Plasma protein binding assay (rapid equilibrium device). It counts as in vitro ADME. The note with it: guinea pig plasma, equilibrium dialysis 4 h at 37 °C, read-out: fraction bound (converted). On the procedure: Plasma was freshly prepared by centrifugation of guinea pig blood for 10 min at 1900 g in K3-EDTA (Ethylenediaminetetraacetic acid) coated tubes. The plasma protein binding of compounds was assessed at 5 μM concentrations as described by Van Liemp et al. 2010 (Van Liemp S, Morrison D, Sysmans L, Nelis P & Mortishire-Smith R (2010). Development and Validation of a Higher-Throughput Equilibrium Dialysis Assay for Plasma Protein Binding. Journal of the Association for Laboratory Automation, 2010, in press) using a rapid equilibrium device (RED). Briefly, guinea pig plasma was mixed with 5 μM test compound and then applied to the RED. Equilibrium was achieved after 4 h incubation at 37° C. Compound concentrations in the buffer and plasma compartment of the device were measured by LC-MS/MS.

For data set [5], the target named is T1, CYP1A2 (Homo sapiens, UniProt P05177).
T1 sequence (P05177 1-516): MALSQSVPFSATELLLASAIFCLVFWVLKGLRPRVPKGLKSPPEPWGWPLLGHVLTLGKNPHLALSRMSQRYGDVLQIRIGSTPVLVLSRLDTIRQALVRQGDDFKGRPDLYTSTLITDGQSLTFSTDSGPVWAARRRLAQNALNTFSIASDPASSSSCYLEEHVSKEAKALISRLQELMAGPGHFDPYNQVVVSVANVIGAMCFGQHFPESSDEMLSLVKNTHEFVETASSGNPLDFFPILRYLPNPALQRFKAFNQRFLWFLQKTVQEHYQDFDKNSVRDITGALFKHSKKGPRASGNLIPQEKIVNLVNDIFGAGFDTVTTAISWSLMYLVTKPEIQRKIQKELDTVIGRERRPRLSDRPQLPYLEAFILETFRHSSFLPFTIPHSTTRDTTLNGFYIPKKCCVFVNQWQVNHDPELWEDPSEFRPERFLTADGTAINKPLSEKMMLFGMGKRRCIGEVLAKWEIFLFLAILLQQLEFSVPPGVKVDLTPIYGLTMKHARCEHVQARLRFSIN
Put plainly: Cytochrome P450 inhibition, Protocol A, cDNA expressed proteins, fluorogenic substrate. It counts as in vitro ADME. The note with it: % inhibition at 10 μM; substrate CEC; cDNA expressed protein. In short, it runs like this: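 cDNA-expressed enzymes with fluorogenic substrates (three separate ones for CYP3A4) in sodium/potassium buffer pH 7.4 plus NADPH-generating system. Compounds at 1 nM to 10 μM final, prewarmed 5 min at 37° C, reaction started with NADP+, stopped, then fluorescence measured.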

Data set [6] in a line: Liver metabolic stability assay, mLM. It counts as in vitro ADME. To be noted: mouse liver microsomes, 1 mg protein/ml, 5 μM test compound, 15 min, 37 °C. Summed up: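 Microsomes pre-incubated 5 min at 37° C, reaction started with 5 μM test compound and stopped with DMSO at 0 and 15 min. Supernatant analysed by LC-MS/MS (ion-trap, APCI) to give % compound remaining.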

The record followed here is patent US9040523B2, “Antifungal 5,6-dihydro-4H-pyrrolo[1,2-α][1,4]-benzodiazepines and 6H-pyrrolo[1,2-α][1,4]benzodiazepines substituted with benzene derivatives” (JANSSEN PHARMACEUTICA NV, priority 2010, dated 2015).

Regarding `CC(=O)c1ccc(C2=NCc3cccc(Cl)c3-n3cccc32)cc1` [Compound 15, 1-[4-(10-chloro-6H-pyrrolo[1,2-a][1,4]benzodiazepin-4-yl)phenyl]-ethanone], the melting point was 171.4 to 171.8 °C. The IC50 in data set [1] is 631 nM. For the same compound, the IC50 in data set [2] is 2000 nM. The IC50 in data set [3] is over 63100 nM. Also, the fraction unbound at 4 h, 5 μM in data set [4] is 0.0152. In data set [5], this compound came in with a hCYP1A2_CEC_Pct_Inh of 38%.

As to `CC(=O)c1cccc(C2=NCc3c(Cl)cccc3-n3cccc32)c1` [Compound 16, 1-[3-(7-chloro-6H-pyrrolo[1,2-a][1,4]benzodiazepin-4-yl)phenyl]-ethanone], the results for the IC50 in data set [1], in data set [2] and in data set [3] were 316 nM, over 63100 nM and over 63100 nM, respectively. Further, in data set [6], the “%-compound metabolised Met_mLM” value amounted to 97%. In addition, the hCYP1A2_CEC_Pct_Inh in data set [5] was determined as 55%.

Take `CC(=O)c1cc(C2=NCc3c(Cl)cccc3-n3cccc32)ccc1F` [Compound 19, 1-[5-(7-chloro-6H-pyrrolo[1,2-a][1,4]benzodiazepin-4-yl)-2-fluorophenyl]-ethanone]: the melting point lay within 146.2 to 147.7 °C. Further, the IC50 in data set [1] is 1580 nM. Also, in data set [2], the IC50 was 1260 nM. Besides, in data set [3], the IC50 was over 63100 nM. This compound also showed a hCYP1A2_CEC_Pct_Inh in data set [5] of 44%.

On to `CC(=O)c1ccc(C2=NCc3c(F)cccc3-n3cccc32)cc1` [Compound 20, 1-[4-(7-fluoro-6H-pyrrolo[1,2-a][1,4]benzodiazepin-4-yl)phenyl]-ethanone], for which the melting point lay within 215.2 to 216 °C. In addition, the IC50 in data set [1] is 1260 nM. The IC50 in data set [2] was 631 nM. In data set [3], the IC50 was over 63100 nM. The hCYP1A2_CEC_Pct_Inh in data set [5] is given as 18%.

`CC(=O)c1ccc(C2=NCc3c(Cl)cc(Cl)cc3-n3cccc32)cc1` [Compound 22, 1-[4-(7,9-dichloro-6H-pyrrolo[1,2-a][1,4]benzodiazepin-4-yl)phenyl]-ethanone]: the melting point is 250.2 to 254.2 °C. Moreover, the IC50 in data set [1] was 100 nM. Besides, the IC50 in data set [2] was 1260 nM. In data set [3], the IC50 is over 63100 nM. The “%-compound metabolised Met_mLM” value in data set [6] was found to be 37%. In data set [5], this compound showed a hCYP1A2_CEC_Pct_Inh of 20%.

Turning to `CC(=O)c1ccc(C2=NCc3c(F)cc(F)cc3-n3cccc32)cc1` [Compound 24, 1-[4-(7,9-difluoro-6H-pyrrolo[1,2-a][1,4]benzodiazepin-4-yl)phenyl]-ethanone], the melting point lay in the range of 226.9 to 230 °C. The IC50 in data set [1] is 2000 nM. Also, in data set [2], the IC50 is 2510 nM. Moreover, the IC50 in data set [3] was over 63100 nM. In data set [5], this compound gave a hCYP1A2_CEC_Pct_Inh of 18%.
